Laboratory results as given in BigSolDB 2.1.

CCCCCCCCCCCC(=O)O
solubility (mole fraction)
Settings	in ethanol	in isobutanol	in isopentanol	in methanol	in n-butanol	in n-hexanol	in n-pentanol	in n-propanol
276.17 K	0.0422	0.0659	0.0814	0.0318	0.0646	0.0827	0.0742	0.054
279.16 K	0.0554	0.0817	0.1	0.0419	0.0801	0.0991	0.0907	0.0685
282.16 K	0.0739	0.102	0.122	0.0555	0.0999	0.122	0.113	0.0859
285.15 K	0.0924	0.128	0.15	0.0723	0.123	0.151	0.137	0.108
288.15 K	0.119	0.158	0.179	0.0942	0.151	0.183	0.167	0.135
291.14 K	0.151	0.195	0.217	0.123	0.188	0.22	0.204	0.169
294.14 K	0.194	0.238	0.263	0.161	0.229	0.266	0.247	0.21
297.13 K	0.244	0.289	0.315	0.208	0.283	0.322	0.301	0.261
300.13 K	0.305	0.351	0.376	0.264	0.338	0.39	0.368	0.319
303.12 K	0.386	0.422	0.446	0.341	0.418	0.464	0.435	0.399
306.12 K	0.482	0.514	0.537	0.433	0.51	0.549	0.53	0.488
